# Experimental data as given in paper PMC8342319, “Predicting blood-to-plasma concentration ratios of drugs from chemical structures and volumes of distribution in humans” (Molecular Diversity, 2021).
# Assays:
# [1] = human, intravenous; median if multiple values were reported; ref numbers in Table S1; cited from earlier work
# [2] = human
# [3] = human, intravenous; median if multiple values were reported; ref numbers in Table S1; cited from earlier work; remark: listed apart in the source
in vivo MRT_(hr)_Human [2],Compound,in vivo Vd_(L/kg)_Human [1],in vivo CL_(L/hr/kg)_Human [3]
2.107 h,Cc1[nH]cnc1CN1CCc2c(c3ccccc3n2C)C1=O [Alosetron],1.100 L/kg,0.522 L/h/kg
10.938 h,CN(C)CCCN1c2ccccc2Sc2ccc(Cl)cc21 [Chlorpromazine],10.500 L/kg,0.960 L/h/kg
43.333 h,NS(=O)(=O)c1cc(C2(O)NC(=O)c3ccccc32)ccc1Cl (stereo not drawn) [Chlorthalidone],3.900 L/kg,0.046 L/h/kg
26.423 h,CN(C)CCCN1c2ccccc2CCc2ccc(Cl)cc21 [Clomipramine],13.000 L/kg,0.492 L/h/kg
2.157 h,O=c1ccc2ccccc2o1 [Coumarin],2.200 L/kg,1.020 L/h/kg
0.917 h,Cc1onc(-c2c(Cl)cccc2Cl)c1C(=O)N[C@@H]1C(=O)N2[C@@H]1SC(C)(C)[C@@H]2C(=O)O [Dicloxacillin],0.110 L/kg,0.108 L/h/kg
14.286 h,CN(C)CCC=C1c2ccccc2COc2ccccc21 [Doxepin],12.000 L/kg,0.840 L/h/kg
10.764 h,CN1CCN(c2c(F)cc3c(=O)c(C(=O)O)cn(CCF)c3c2F)CC1 [Fleroxacin],1.550 L/kg,0.144 L/h/kg
24.000 h,CN[C@@H]1CCc2[nH]c3ccc(C(N)=O)cc3c2C1 [Frovatriptan],3.600 L/kg,0.150 L/h/kg
6.777 h,CN1C2CCCC1CC(NC(=O)c1nn(C)c3ccccc13)C2 (stereo not drawn) [Granisetron],3.700 L/kg,0.546 L/h/kg
0.759 h,CC(C)(C)NC(=O)[C@@H]1CN(Cc2cccnc2)CCN1C[C@@H](O)C[C@@H](Cc1ccccc1)C(=O)N[C@H]1c2ccccc2C[C@H]1O [Indinavir],0.820 L/kg,1.080 L/h/kg

# The next lines start with the compound.
Compound,in vivo MRT_(hr)_Human [2],in vivo Vd_(L/kg)_Human [1],in vivo CL_(L/hr/kg)_Human [3]
Cc1cc(=O)n(-c2ccccc2)n1C [Antipyrine],21.354 h,0.820 L/kg,0.038 L/h/kg
Cn1c(=O)c2c(ncn2C)n(C)c1=O [Caffeine],8.095 h,0.680 L/kg,0.084 L/h/kg
COCc1c(C(C)C)nc(C(C)C)c(/C=C/[C@@H](O)C[C@@H](O)CC(=O)O)c1-c1ccc(F)cc1 [Cerivastatin],1.897 h,0.330 L/kg,0.174 L/h/kg
CN/C(=N/CCSCc1nc[nH]c1C)NC#N [Cimetidine],2.469 h,1.200 L/kg,0.492 L/h/kg
C[C@H]1O[C@@H](O[C@H]2[C@@H](O)C[C@H](O[C@H]3[C@@H](O)C[C@H](O[C@H]4CC[C@@]5(C)[C@H](CC[C@@H]6[C@@H]5C[C@@H](O)[C@]5(C)[C@@H](C7=CC(=O)OC7)CC[C@]65O)C4)O[C@@H]3C)O[C@@H]2C)C[C@H](O)[C@@H]1O [Digoxin],40.196 h,4.100 L/kg,0.102 L/h/kg
CC[C@@H](CO)NCCN[C@@H](CC)CO [Ethambutol],2.833 h,1.700 L/kg,0.600 L/h/kg
OC(Cn1cncn1)(Cn1cncn1)c1ccc(F)cc1F [Fluconazole],40.323 h,0.750 L/kg,0.019 L/h/kg
Nc1nc(O)c2ncn(COC(CO)CO)c2n1 [Ganciclovir],3.623 h,1.000 L/kg,0.240 L/h/kg
